Assays:
Test in all cases: biochemical
Parameters in all cases: KINOMEscan competition binding panel (Eurofins DiscoverX), single concentration, % inhibition
Conditions in all cases: read-out: 7 at 1 µM % inhibition
MELK = MELK (Homo sapiens, UniProt Q14680)
Procedure, shortened: (§1)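 Selectivity profile from a KINOMEscan run against >400 human kinases; test concentration 1 µM.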

CDKL2 = CDKL2 (Homo sapiens, UniProt Q92772)
Procedure, shortened: as §1

HIPK1 = HIPK1 (Homo sapiens, UniProt Q86Z02)
Procedure, shortened: as §1

INSRR = INSRR (Homo sapiens, UniProt P14616)
Procedure, shortened: as §1

NEK1 = NEK1 (Homo sapiens, UniProt Q96PY6)
Procedure, shortened: as §1

CDC2L2 = target: T1, CDC2L2 (Homo sapiens, UniProt Q9UQ88)
T1 construct: gene CDK11A
Procedure, shortened: as §1

MLK1 = target: T2, MLK1 (Homo sapiens, UniProt P80192)
T2 construct: gene MAP3K9
Procedure, shortened: as §1

RET(V804L) = RET(V804L) (Homo sapiens, UniProt P07949, V804L)
Procedure, shortened: as §1

ACVR2A = ACVR2A (Homo sapiens, UniProt P27037)
Procedure, shortened: as §1

PIK3CA(E545K) = PIK3CA(E545K) (Homo sapiens, UniProt P42336, E545K)
Procedure, shortened: as §1

STK33 = STK33 (Homo sapiens, UniProt Q9BYT3)
Procedure, shortened: as §1

PLK3 = PLK3 (Homo sapiens, UniProt Q9H4B4)
Procedure, shortened: as §1

ANKK1 = ANKK1 (Homo sapiens, UniProt Q8NFD2)
Procedure, shortened: as §1

SRPK2 = SRPK2 (Homo sapiens, UniProt P78362)
Procedure, shortened: as §1

AAK1 = AAK1 (Homo sapiens, UniProt Q2M2I8)
Procedure, shortened: as §1

MARK4 = MARK4 (Homo sapiens, UniProt Q96L34)
Procedure, shortened: as §1

WNK4 = WNK4 (Homo sapiens, UniProt Q96J92)
Procedure, shortened: as §1

AURKB = AURKB (Homo sapiens, UniProt Q96GD4)
Procedure, shortened: as §1

SGK2 = SGK2 (Homo sapiens, UniProt Q9HBY8)
Procedure, shortened: as §1

PIKFYVE = PIKFYVE (Homo sapiens, UniProt Q9Y2I7)
Procedure, shortened: as §1

PIK3CB = PIK3CB (Homo sapiens, UniProt P42338)
Procedure, shortened: as §1

MINK = target: T3, MINK (Homo sapiens, UniProt Q8N4C8)
T3 construct: gene MINK1
Procedure, shortened: as §1

EGFR(L861Q) = EGFR(L861Q) (Homo sapiens, UniProt P00533, L861Q)
Procedure, shortened: as §1

[1] = target: T4, TYK2(JH1domain-catalytic) (Homo sapiens, UniProt P29597)
T4 construct: JH1domain-catalytic
Procedure, shortened: as §1

SGK2, sequence (Q9HBY8 whole entry): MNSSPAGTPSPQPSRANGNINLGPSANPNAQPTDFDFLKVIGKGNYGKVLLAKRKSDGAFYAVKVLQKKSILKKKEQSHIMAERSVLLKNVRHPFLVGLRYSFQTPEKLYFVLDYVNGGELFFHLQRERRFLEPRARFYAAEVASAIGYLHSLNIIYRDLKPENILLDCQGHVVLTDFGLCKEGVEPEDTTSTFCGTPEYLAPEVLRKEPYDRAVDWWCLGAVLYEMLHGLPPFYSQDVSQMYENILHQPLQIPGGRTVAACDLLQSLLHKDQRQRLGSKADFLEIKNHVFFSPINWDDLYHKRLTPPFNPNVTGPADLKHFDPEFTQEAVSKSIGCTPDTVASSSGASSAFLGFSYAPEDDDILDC
AURKB, sequence (Q96GD4 whole entry): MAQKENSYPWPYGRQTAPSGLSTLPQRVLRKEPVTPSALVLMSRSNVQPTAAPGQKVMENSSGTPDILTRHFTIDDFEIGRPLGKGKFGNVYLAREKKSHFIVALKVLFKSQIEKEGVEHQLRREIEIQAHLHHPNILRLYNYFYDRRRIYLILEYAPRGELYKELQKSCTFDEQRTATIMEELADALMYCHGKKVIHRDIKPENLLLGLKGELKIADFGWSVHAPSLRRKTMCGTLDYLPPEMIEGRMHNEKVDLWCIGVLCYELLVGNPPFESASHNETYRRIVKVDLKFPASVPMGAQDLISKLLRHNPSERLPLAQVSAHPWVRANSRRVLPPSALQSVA
T3 sequence (Q8N4C8 whole entry): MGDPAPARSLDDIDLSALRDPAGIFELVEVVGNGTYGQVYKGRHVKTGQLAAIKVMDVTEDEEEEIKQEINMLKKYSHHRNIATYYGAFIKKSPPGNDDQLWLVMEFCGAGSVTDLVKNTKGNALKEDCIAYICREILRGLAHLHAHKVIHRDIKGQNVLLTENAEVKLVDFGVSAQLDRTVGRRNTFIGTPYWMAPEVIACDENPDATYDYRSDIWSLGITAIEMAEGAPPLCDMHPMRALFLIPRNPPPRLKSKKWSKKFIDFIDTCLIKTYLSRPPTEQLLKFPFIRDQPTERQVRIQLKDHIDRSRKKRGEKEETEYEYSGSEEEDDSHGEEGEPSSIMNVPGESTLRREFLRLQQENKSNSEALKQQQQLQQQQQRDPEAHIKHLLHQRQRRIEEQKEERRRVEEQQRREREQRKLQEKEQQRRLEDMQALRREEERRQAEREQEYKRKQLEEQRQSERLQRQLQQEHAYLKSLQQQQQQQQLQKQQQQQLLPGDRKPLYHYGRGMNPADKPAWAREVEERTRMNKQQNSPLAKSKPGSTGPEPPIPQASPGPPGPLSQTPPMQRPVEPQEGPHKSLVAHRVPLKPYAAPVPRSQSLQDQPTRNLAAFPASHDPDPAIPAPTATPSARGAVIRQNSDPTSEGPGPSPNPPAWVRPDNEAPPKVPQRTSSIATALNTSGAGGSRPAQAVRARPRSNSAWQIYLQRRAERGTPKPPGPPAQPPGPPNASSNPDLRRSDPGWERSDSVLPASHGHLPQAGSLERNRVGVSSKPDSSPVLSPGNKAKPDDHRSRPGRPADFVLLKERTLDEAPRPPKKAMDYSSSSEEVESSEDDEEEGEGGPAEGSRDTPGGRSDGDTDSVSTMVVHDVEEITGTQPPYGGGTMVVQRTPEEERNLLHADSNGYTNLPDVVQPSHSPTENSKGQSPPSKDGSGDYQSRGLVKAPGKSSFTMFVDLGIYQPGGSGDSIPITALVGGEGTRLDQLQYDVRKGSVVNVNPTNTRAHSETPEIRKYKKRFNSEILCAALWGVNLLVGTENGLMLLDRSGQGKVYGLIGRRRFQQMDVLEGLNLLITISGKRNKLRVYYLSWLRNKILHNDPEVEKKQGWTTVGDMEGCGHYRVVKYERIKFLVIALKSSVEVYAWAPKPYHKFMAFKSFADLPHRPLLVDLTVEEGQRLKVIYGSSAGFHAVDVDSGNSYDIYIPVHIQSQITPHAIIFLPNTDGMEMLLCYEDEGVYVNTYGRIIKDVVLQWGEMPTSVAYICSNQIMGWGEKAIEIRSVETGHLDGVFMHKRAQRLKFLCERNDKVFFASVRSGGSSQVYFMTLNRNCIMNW
RET(V804L), sequence (P07949 whole entry V804L): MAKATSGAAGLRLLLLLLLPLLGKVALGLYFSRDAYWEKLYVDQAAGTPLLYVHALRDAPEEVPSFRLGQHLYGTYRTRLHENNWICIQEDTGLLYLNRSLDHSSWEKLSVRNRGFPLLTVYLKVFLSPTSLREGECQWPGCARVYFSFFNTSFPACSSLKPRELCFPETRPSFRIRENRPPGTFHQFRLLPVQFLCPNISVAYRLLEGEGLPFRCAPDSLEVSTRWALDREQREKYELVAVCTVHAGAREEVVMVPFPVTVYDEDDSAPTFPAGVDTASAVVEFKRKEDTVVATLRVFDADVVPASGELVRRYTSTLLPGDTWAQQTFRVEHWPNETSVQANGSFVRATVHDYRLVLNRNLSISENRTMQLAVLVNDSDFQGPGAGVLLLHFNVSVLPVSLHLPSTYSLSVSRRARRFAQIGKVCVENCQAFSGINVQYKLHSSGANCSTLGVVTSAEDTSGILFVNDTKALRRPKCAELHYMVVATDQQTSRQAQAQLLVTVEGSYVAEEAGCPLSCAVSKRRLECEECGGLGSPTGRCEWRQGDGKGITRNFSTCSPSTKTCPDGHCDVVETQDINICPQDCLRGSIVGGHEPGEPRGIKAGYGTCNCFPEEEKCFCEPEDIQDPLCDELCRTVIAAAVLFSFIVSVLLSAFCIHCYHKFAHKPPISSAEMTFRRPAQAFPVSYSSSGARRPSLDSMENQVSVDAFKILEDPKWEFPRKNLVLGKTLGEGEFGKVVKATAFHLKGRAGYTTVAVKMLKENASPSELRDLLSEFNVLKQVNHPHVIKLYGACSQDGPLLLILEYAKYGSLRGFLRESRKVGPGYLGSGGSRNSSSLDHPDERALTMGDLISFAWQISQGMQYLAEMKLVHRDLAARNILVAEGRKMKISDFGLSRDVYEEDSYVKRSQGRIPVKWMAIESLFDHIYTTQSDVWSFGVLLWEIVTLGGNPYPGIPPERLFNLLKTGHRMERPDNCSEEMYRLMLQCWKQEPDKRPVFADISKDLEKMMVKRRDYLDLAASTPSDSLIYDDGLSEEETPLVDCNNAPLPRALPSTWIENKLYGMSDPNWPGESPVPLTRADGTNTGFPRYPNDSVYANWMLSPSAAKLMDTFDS
ACVR2A, sequence (P27037 whole entry): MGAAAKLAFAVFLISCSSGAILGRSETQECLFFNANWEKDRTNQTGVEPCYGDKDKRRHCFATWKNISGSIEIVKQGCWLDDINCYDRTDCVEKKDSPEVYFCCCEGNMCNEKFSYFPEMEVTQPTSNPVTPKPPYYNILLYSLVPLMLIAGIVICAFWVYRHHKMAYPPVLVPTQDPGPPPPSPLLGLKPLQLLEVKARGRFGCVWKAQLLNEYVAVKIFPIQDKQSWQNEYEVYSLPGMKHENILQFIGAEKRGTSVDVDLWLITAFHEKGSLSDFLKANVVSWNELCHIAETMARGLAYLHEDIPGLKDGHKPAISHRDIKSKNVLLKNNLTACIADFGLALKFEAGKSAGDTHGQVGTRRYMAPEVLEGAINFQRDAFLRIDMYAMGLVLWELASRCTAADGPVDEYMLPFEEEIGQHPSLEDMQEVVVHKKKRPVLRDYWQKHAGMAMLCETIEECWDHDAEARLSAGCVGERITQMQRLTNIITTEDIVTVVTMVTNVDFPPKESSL
ANKK1, sequence (Q8NFD2 whole entry): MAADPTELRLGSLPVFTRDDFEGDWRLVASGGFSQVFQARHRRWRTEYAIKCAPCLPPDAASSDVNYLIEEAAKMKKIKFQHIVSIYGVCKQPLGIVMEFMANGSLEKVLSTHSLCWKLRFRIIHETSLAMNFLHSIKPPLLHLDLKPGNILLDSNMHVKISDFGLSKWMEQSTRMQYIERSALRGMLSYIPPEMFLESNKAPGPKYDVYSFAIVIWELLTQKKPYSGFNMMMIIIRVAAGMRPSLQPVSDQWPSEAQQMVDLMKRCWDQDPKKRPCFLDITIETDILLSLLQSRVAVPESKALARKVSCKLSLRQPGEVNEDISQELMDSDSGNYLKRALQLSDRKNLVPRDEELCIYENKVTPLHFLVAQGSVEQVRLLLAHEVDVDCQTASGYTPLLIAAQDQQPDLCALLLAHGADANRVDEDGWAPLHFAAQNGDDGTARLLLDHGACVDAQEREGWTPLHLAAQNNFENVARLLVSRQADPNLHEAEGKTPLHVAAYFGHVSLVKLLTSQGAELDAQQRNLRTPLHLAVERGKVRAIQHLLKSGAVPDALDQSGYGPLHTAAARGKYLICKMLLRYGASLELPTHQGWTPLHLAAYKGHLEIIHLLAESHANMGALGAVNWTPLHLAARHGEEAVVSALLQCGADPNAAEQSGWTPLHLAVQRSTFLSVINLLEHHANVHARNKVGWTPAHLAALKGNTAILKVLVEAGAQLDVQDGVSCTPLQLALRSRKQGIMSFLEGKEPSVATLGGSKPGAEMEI
STK33, sequence (Q9BYT3 whole entry): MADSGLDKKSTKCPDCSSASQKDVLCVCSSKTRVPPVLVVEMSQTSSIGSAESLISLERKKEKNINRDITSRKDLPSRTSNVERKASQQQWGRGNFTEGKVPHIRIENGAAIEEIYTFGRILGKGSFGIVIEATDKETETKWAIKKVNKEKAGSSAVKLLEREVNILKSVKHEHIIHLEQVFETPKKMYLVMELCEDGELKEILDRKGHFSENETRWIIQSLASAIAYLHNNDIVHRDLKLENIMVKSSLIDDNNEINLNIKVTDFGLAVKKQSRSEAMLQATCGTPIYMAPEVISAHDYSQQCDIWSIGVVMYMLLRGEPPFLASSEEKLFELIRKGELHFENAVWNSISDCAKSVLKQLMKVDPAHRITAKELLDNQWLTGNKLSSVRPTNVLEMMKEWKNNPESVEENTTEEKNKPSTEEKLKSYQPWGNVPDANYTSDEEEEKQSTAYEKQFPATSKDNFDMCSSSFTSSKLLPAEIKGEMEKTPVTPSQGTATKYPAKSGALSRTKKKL

CNS(=O)(=O)c1ccc(N(C)C)c(Nc2ncnc3cc(OC)c(OC)cc23)c1 [compound 7, 3-((6,7-dimethoxyquinazolin-4-yl)amino)-4-(dimethylamino)-N-methylbenzenesulfonamide]
inhibition at 1 µM (MELK): 17% | inhibition at 1 µM (CDKL2): 0% | inhibition at 1 µM (HIPK1): 5% | inhibition at 1 µM (INSRR): 13% | inhibition at 1 µM (NEK1): 0% | inhibition at 1 µM (CDC2L2): 0% | inhibition at 1 µM (MLK1): 10% | inhibition at 1 µM (RET(V804L)): 0% | inhibition at 1 µM (ACVR2A): 0% | inhibition at 1 µM (PIK3CA(E545K)): 5% | inhibition at 1 µM (STK33): 6% | inhibition at 1 µM (PLK3): 0% | inhibition at 1 µM (ANKK1): 19% | inhibition at 1 µM (SRPK2): 15% | inhibition at 1 µM (AAK1): 0% | inhibition at 1 µM (MARK4): 2% | inhibition at 1 µM (WNK4): 0% | inhibition at 1 µM (AURKB): 0% | inhibition at 1 µM (SGK2): 0% | inhibition at 1 µM (PIKFYVE): 7% | inhibition at 1 µM (PIK3CB): 2% | inhibition at 1 µM (MINK): 18% | inhibition at 1 µM (EGFR(L861Q)): 0% | inhibition at 1 µM [1]: 0%

Reference: paper PMC7180948, “New Insights into 4-Anilinoquinazolines as Inhibitors of Cardiac Troponin I–Interacting Kinase (TNNi3K)” (Molecules, 2020)
